Data as given in patent US20090191173A1, “Induction Of Neurogenesis And Stem Cell Therapy In Combination With Copolymer 1” (priority 2004, published 2009).

Test system: neural progenitor cells (NPCs)
Test: Neurogenesis from NPCs co-cultured with microglia pre-activated by aggregated Aβ and cytokines
Assay type: cell-based, mouse
Settings: 10 days; Aβ 5 μM 48 h, cytokines 10 ng/ml
Experimental: (xx) Reagents. Recombinant mouse IFN-γ and IL-4 (both containing endotoxin at a concentration below 0.1 ng/μg cytokine) were obtained from R&D Systems (Minneapolis, Minn.). β-amyloid peptides [amyloid protein fragment 1-40 and 1-42 (Aβ1-40/1-42)] were purchased from Sigma-Aldrich, St. Louis, Mo. The Aβ peptides were dissolved in endotoxin-free water, and Aβ aggregates were formed by incubation of Aβ, as described (Ishii et al., 2000). (xxv) Neural progenitor cell culture. Coronal sections (2 mm thick) of tissue containing the subventricular zone of the lateral ventricle were obtained from the brains of adult C57B1/6J mice. […] After centrifugation at 110×g for 15 min at room temperature, the tissue was mechanically dissociated by pipette trituration. Cells obtained from single-cell suspensions were plated (3500 cells/cm^2) in 75-cm^2 Falcon tissue-culture flasks (BD Biosciences, San Diego, Calif.), in NPC-culturing medium [Dulbecco's modified Eagles's medium (DMEM)/F12 medium (Gibco/Invitrogen, Carlsbad, Calif.) containing 2 mM L-glutamine, 0.6% glucose, 9.6 μg/ml putrescine, 6.3 ng/ml progesterone, 5.2 ng/ml sodium selenite, 0.02 mg/ml insulin, 0.1 mg/ml transferrin, 2 μg/ml heparin (all from Sigma-Aldrich, Rehovot, Israel), fibroblast growth factor-2 (human recombinant, 20 ng/ml), and epidermal growth factor (human recombinant, 20 ng/ml; both from Peprotech, Rocky Hill, N.J.)]. Spheres were passaged every 4-6 days and replated as single cells. Green fluorescent protein (GFP)-expressing NPCs were obtained as previously described (Pluchino et al., 2003). (xxvi) Primary microglial culture. Brains from neonatal (P0-P1) C57B1/6J mice were stripped of their meninges and minced with scissors under a dissecting microscope (Zeiss, Stemi DV4, Germany) in Leibovitz-15 medium (Biological Industries, Kibbutz Beit Ha-Emek, Israel). […] The cell suspension was washed in culture medium for glial cells [DMEM supplemented with 10% fetal calf serum (FCS; Sigma-Aldrich, Rehovot), L-glutamine (1 mM), sodium pyruvate (1 mM), penicillin (100 U/ml), and streptomycin ([…])] and cultured at 37° C./5% CO2 in 75-cm^2 Falcon tissue-culture flasks (BD Biosciences) coated with poly-D-lysine (PDL) (10 mg/ml; Sigma-Aldrich, Rehovot) in borate buffer (2.37 g borax and 1.55 g boric acid dissolved in 500 ml sterile water, pH 8.4) for 1 h, then rinsed thoroughly with sterile, glass-distilled water. Half of the medium was changed after 6 h in culture and every 2nd day thereafter, starting on day 2, for a total culture time of 10-14 days. […]

IFN-γ: recombinant interferon-γ
neurogenesis (GFP+/βIIIT+ cells) from NPCs co-cultured with treated microglia: increase in numbers of GFP^+/βIIIT^+ cells was dramatic
